# Reference: patent US20080125432A1 (Devgen NV, priority 2004, published 2008)
# Like-named read-outs stand apart in the source and are kept apart here.
# Assays:
# [1] = biological target: T1, human Kv4.3/KChIP2.2 potassium channel (Homo sapiens, UniProt Q9UK17); assay: Whole cell patch clamp, CHO-K1 cells stably expressing human Kv4.3/KChIP2.2; format: cell-based; details: for IC50: Kv4.3 mediated current, charge, patch clamp, read-out: Kv4.3 charge IC50; for remaining activity at 1 µM: CHO-K1
# T1 construct: expressed in transfected cells
# T1 sequence (Q9UK17 1-655): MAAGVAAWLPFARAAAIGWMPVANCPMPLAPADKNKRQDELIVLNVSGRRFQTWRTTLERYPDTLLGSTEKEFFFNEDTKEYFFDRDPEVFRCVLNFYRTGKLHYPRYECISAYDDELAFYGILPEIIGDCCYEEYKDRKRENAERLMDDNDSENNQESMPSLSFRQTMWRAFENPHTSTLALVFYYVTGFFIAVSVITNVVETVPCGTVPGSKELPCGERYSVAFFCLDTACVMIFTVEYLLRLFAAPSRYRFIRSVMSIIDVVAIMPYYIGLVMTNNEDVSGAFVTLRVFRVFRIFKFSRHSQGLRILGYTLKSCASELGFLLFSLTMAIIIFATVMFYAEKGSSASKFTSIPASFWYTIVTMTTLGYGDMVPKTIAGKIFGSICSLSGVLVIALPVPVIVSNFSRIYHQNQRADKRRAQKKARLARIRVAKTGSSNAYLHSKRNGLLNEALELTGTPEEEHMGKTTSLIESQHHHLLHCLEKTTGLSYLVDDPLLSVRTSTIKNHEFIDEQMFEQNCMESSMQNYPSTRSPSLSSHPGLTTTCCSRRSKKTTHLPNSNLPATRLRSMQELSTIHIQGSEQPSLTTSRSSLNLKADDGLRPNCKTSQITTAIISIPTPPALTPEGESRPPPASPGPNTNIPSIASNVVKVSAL
# Protocol: For this experiment, a recombinant CHO-K1 cell line stably expressing the human Kv4.3/KChIP2.2 potassium channel was used. The cells used for this experiment were kept in continuous culture under standard conditions (37° C., air supplemented with 7% CO2). The CHO-K1 Kv4.3/KChIP2.2 cells were kept in Iscove s modified DMEM (Dulbecco's Modified Eagle's Medium) medium (IMEM) supplemented with 100 U/ml Penicillin, 100 μg/ml Streptomycin, 7% fetal calf serum (FCS), 2.5 μg/ml amphotericin, 400 μg/ml G418, and 400 μg/ml Zeocin™. Cells were passed every 3-4 days after detachment using a Trypsin solution. The quality of the cultured cells was guaranteed by vitality and contamination tests. The culture of the cells was performed as described in protocol D hereunder.
# 10 mM stock solutions of the compounds were prepared in DMSO. Solutions of the compounds were prepared by dilution of stock solution in bath solution. If the required stock solution volume was theoretically below 1 μl, bath solutions with higher compound concentration were used for dilution. The maximal DMSO concentration during experiments was 0.1% (v/v).
# Activity of the human Kv4.3/KChIP2.2 channel was investigated using the patch clamp technique in its whole cell mode. This means that the current needed for clamping the whole cell expressing the K^+-channel protein to a specific potential was measured. Experiments were performed using a patch clamp set-up. Technical equipment needed for manipulation of the cells was placed on a vibration-isolated table and shielded with a Faraday cage to minimize electrical noise. The amplifier and control system were placed in a rack outside the Faraday cage. The system consisted of an EPC9 or EPC10 patch clamp amplifier (HEKA, Lambrecht, Germany), and the perfusion system DADVC8 (ALA Scientific, New York, USA) controlled by the Pulse software package (HEKA, Lambrecht, Germany) installed on a personal computer. The pipettes used for patch clamping were made of borosilicate glass.
# Measurements were performed at room temperature (20-25° C.). In each experiment (i.e. each cell) only one concentration of the compounds was investigated no cumulative dosages were performed. Each cell acted as its own control. […]
# Between voltage pulses the cell was clamped to a holding potential of −80 mV (inside). The test protocols are illustrated in FIG. 1 and Table 4. The test protocol illustrated in FIG. 1a was used to characterize the properties of the Kv4.3/KChIP2.2 channel and to check the quality of the individual patch clamp experiment (voltage control). […] Each test protocol consisted of 4 segments.
# After the whole cell configuration was established a current-voltage curve (IV activation 1; FIG. 1a and Table 4a) was recorded under constant superfusion with bath solution to check for Kv4.3/KChIP2.2 expression and the quality of the individual patch clamp experiment (voltage control). Subsequently, 14 test pulses (series 1; FIG. 1b and Table 4b) were applied at 0.1 Hz under constant superfusion with bath solution. The protocol was initiated by a voltage jump to 100 mV (400 ms) to achieve full inactivation. Then the Kv4.3/KChIP2.2 channels were transferred to the open state by depolarization to +40 mV for 300 milliseconds (activation). Only cells generating current amplitudes between 1 nA and 50 nA were used for the experimental procedure. No or negligible rundown was observed.
# Then, 36 test pulses (series 2) were applied at 0.1 Hz under constant superfusion with the compound dissolved in bath solution. Finally, another current-voltage curve was recorded in the presence of the compounds (IV activation 2).
# Three different types of analysis were used: Inhibition at the peak current, inhibition of translocated charge and inhibition 75 ms after activation at +40 mV (sustained current). The peak current/charge/current at 75 ms was determined using the online analysis tool of the HEKA pulse software package. […]
IC50 [1] [nM],melting point [°C],Molecule,also measured
,94.4 to 106.6,"COc1ccccc1Nc1nc(C)c(C(=O)N2CCCC2c2ccc(F)cc2)s1 (centres unmarked) [Compound 177, [2-(4-fluoro-phenyl)-pyrrolidin-1-yl]-[2-(2-methoxy-phenylamino)-4-methyl-thiazol-5-yl]-methanone]",
,129.4,"COc1ccccc1Nc1nc(C)c(C(=O)NC2CCCc3ccccc32)s1 (centres unmarked) [Compound 173, 2-(2-methoxy-phenylamino)-4-methyl-thiazole-5-carboxylic acid (1,2,3,4-tetrahydro-naphthalen-1-yl)-amide]",
,134.1 to 136.2,"COc1ccc(CNC(=O)c2cnc(Nc3ccccc3OC)[nH]2)c(OC)c1 [Compound 225, 2-(2-methoxy-phenylamino)-3H-imidazole-4-carboxylic acid 2,4-dimethoxy-benzylamide]",
,187.7 to 191.5,"COc1ccccc1Nc1nc(C)c(C(=O)N2CCC(c3ccc(C)cc3)CC2)s1 [Compound 168, [2-(2-methoxy-phenylamino)-4-methyl-thiazol-5-yl]-[4-p-tolyl-piperidin-1-yl]-methanone]",
,112.6 to 121.6,"COc1ccccc1Nc1nc(C)c(C(=O)NC2CCN(Cc3ccccc3)C2)s1 (centres unmarked) [Compound 215, 2-(2-methoxy-phenylamino)-4-methyl-thiazole-5-carboxylic acid (1-benzyl-pyrrolidin-3-yl) amide]",
,57.7 to 59.6,"CC[C@@H](NC(=O)c1sc(Nc2ccccc2OC)nc1C)c1ccccc1 [Compound 131, 2-(2-methoxy-phenylamino)-4-methyl-thiazole-5-carboxylic acid ((R)-1-phenyl-propyl)-amide]",
,146.2 to 148,"COc1ccccc1Nc1nc(C)c(C(=O)NC2CCc3ccccc32)s1 (centres unmarked) [Compound 164, 2-(2-methoxy-phenylamino)-4-methyl-thiazole-5-carboxylic acid indan-1-ylamide]",
,212.5 to 213.9,"COc1ccccc1Nc1ncc(C(=O)NCc2ccccc2)[nH]1 [Compound 224, 2-(2-methoxy-phenylamino)-3H-imidazole-4-carboxylic acid benzylamide]",
1530,,"COc1ccc(CNC(=O)c2sc(Nc3ccc(Br)cc3)nc2C)cc1OC [Compound 61, 2-(4-bromo-phenylamino)-4-methyl-thiazole-5-carboxylic acid 3,4-dimethoxy-benzylamide]",
3950,,"COc1ccccc1Nc1nc(C)c(C(=O)N[C@H](C)c2ccc3ccccc3c2)s1 [Compound 53, 2-(2-methoxy-phenylamino)-4-methyl-thiazole-5-carboxylic acid (R)-1-(2-naphtalen-2-yl-ethyl)-amide]",
3060,,"COc1ccc(Cl)cc1Nc1nc(C)c(C(=O)N[C@@H]2CCC[C@H]2OCc2ccccc2)s1 [Compound 35, 2-(5-chloro-2-methoxy-phenylamino)-4-methyl-thiazole-5-carboxylic acid (1R,2R)-2-(benzyloxycyclopent-1-yl) amide]",

# Continued, molecule first:
Molecule,IC50 [1] [nM],melting point [°C],also measured
"COc1cccc([C@@H](C)NC(=O)c2sc(Nc3ccc(Br)cc3)nc2C)c1 [Compound 21, 2-(4-bromo-phenylamino)-4-methyl-thiazole-5-carboxylic acid (R)-1-(3-methoxyphenyl)ethyl amide]",1260,,
Cc1ccccc1Nc1nc(C)c(C(=O)N[C@@H](C)c2ccc3ccccc3c2)s1 [Compound 32],2550,,
"COc1cccc(Nc2nc(C)c(C(=O)N[C@H]3CCC[C@@H]3OCc3ccccc3)s2)c1 [Compound 133, 2-(3-methoxy-phenylamino)-4-methyl-thiazole-5-carboxylic acid ((1S,2S)-2-benzyloxycyclopent-1-yl) amide]",,152.8 to 155.9,
"Cc1nc(Nc2ccc(Br)cc2)sc1C(=O)NCc1ccncc1 [Compound 57, 2-(4-bromo-phenylamino)-4-methyl-thiazole-5-carboxylic acid (pyridin-4-ylmethyl)-amide]",11200,,
"COc1ccccc1N(C(C)=O)c1nc(C)c(C(=O)N[C@H]2CCC[C@@H]2OCc2ccccc2)s1 [Compound 129, 2-[acetyl-(2-methoxy-phenyl)-amino]-4-methyl-thiazole-5-carboxylic acid ((1S,2S)-2-benzyloxycyclopent-1-yl) amide]",,145.8 to 149,
"Cc1nc(Nc2ccc(F)cc2)sc1C(=O)N[C@H]1CCC[C@@H]1OCc1ccccc1 [Compound 67, 2-(4-fluoro-phenylamino)-4-methyl-thiazole-5-carboxylic acid (1S,2S)-2-(benzyloxycyclopent-1-yl) amide]",1970,,
"C[C@@H](NC(=O)c1csc(Nc2ccccc2)n1)c1ccc([N+](=O)[O-])cc1 [Compound 47, 2-phenylamino-thiazole-4-carboxylic acid 1-((R)-4-nitrophenyl-ethyl)-amide]",1800,,
"COc1ccccc1Nc1nc(C)c(C(=O)N[C@H]2CCC[C@@H]2OCc2ccccc2)o1 [Compound 210, 2-(2-methoxy-phenylamino)-4-methyl-oxazole-5-carboxylic acid ((1S,2S)-2-benzyloxycyclopent-1-yl) amide]",,,"remaining activity at 1 µM ([1]; remaining current measured after application of the compound and relative to the blank, read-out: Kv4.3 charge in %): 86%; remaining activity at 1 µM ([1]; remaining peak height measured after application of the compound and relative to the blank, read-out: Kv4.3 peak in %): 99%"
"Cc1nc(Nc2ccc(Br)cc2)sc1C(=O)NCc1ccccn1 [Compound 59, 2-(4-bromo-phenylamino)-4-methyl-thiazole-5-carboxylic acid (pyridin-2-ylmethyl)-amide]",3060,,
"CCCN(Cc1ccc([N+](=O)[O-])cc1)C(=O)c1sc(Nc2ccc(Br)cc2)nc1C [Compound 28, 2-(4-bromo-phenylamino)-4-methyl-thiazole-5-carboxylic acid (4-nitro-benzyl)-propyl-amide]",1060,,
"Cc1nc(Nc2ccc(Br)cc2)sc1C(=O)N[C@H]1CCC[C@@H]1OCc1ccccc1 [Compound 26, 2-(4-bromo-phenylamino)-4-methyl-thiazole-5-carboxylic acid (1S,2S)-2-(benzyloxycyclopent-1-yl) amide]",2180,,
2-(4-bromo-phenylamino)-4-methyl-thiazole-5-carboxylic acid naphth-1-yl methylamide [Compound 27],2770,,
"Cc1nc(N(C)c2ccc(Br)cc2)sc1C(=O)N[C@@H]1CCC[C@H]1OCc1ccccc1 [Compound 29, 2-(4-bromo-phenyl-methylamino)-4-methyl-thiazole-5-carboxylic acid (1R,2R)-2-(benzyloxycyclopent-1-yl) amide]",2130,,
"Cc1nc(Nc2ccc(Br)cc2)sc1C(=O)NCc1cccnc1 [Compound 58, 2-(4-bromo-phenylamino)-4-methyl-thiazole-5-carboxylic acid (pyridin-3-ylmethyl)-amide]",4330,,
